Reference: US20240269170A1, “Treatment of Inflammatory Conditions or Diseases” (Queen Mary University of London, priority 2021, published 2024)

Tested on: Arg-1
Test: Arg-1 expression in bone marrow monocyte-derived macrophages differentiated in vitro, flow cytometry
Type: cell-based, mouse
Description: (B) Mice were administered K/B×N serum on days 0, 2 and 9 then on day 12 they were treated 2×10^6 PKH67-labelled monocytes isolated from arthritic mice and incubated with either vehicle (PBS+0.1% EtOH) or 1 nM MCTR3 for 90 min via i.v injection. After 10 days joints were harvested, cells were liberated that the expression of Arg-1 was evaluated in PKH67^+CD64^+ cells using flow cytometry. Results are from n=10 mice per group. Statistical differences were evaluated using a Mann-Whitney U test. (C) Inflammatory arthritis was induced in C57BL/6 mice and bone marrow-derived monocytes were isolated and treated as in A and Arg-1 expression was evaluated using flow cytometry. Results are mean±SEM and expressed as percentage change from cells incubated with vehicle alone. n=8 per group from two separate experiments. Statistical differences were evaluated using one-sample Wilcoxon signed rank test. (D) Mice were given K/B×N serum (via i.p. injection) on days 0, 2 and 9. […] On day 22, joints were collected and the expression of Arg-1 in PKH67^+ CD64^+ cells was evaluated using flow cytometry. Results are mean±SEM and expressed as percentage change from vehicle group. n=5 mice per group. Statistics differences were evaluated Mann-Whitney U test. […]

Row | Compound | Arg-1 expression in MDM differentiated in vitro (1 nM MCTR3 for 24 hours on monocytes) | ability of MCTR3 to upregulate Arg-1 in vitro (monocytes incubated with 10 μM RG108 for 45 min before 1 nM MCTR3)
1 | CC/C=C\C/C=C\C[C@H](O)[C@@H](/C=C/C=C/C=C\C/C=C\CCC(=O)O)SC[C@H](N)C(=O)O [MCTR3, 13R-cysteinyl, 14S-hydroxy-4Z, 7Z, 9E, 11E, 13R, 14S, 16Z, 19Z-docosahexaenoic acid] | upregulate | 
2 | O=C(O)C(Cc1c[nH]c2ccccc12)N1C(=O)c2ccccc2C1=O (centres unmarked) [RG108] |  | reversed
